Experimental data as given in ChEMBL document CHEMBL4350989, “Discovery of 2,4-diarylaminopyrimidine derivatives bearing dithiocarbamate moiety as novel FAK inhibitors with antitumor and anti-angiogenesis activities” (Eur J Med Chem, 2019).

Assays:
HCT-116 [1] = experiment: Induction of apoptosis in human HCT116 cells assessed as late apoptotic cells at 0.005 uM after 24 hrs by Annexin-V and 7-AAD staining based flow cytometric analysis (reference value: 2.63%); assay type: functional
HCT-116 [2] = experiment: Induction of cell cycle arrest in human HCT116 cells assessed as accumulation at G0/G1 phase at 0.005 uM after 24 hrs by 7-AAD staining-based flow cytometric analysis (reference value: 50.53%); assay type: functional
MCF7 [3] = experiment: Induction of apoptosis in human MCF7 cells assessed as early apoptotic cells at 0.05 uM after 24 hrs by Annexin-V and 7-AAD staining based flow cytometric analysis (reference value: 2.04%); assay type: functional
MCF7 [4] = experiment: Induction of apoptosis in human MCF7 cells assessed as late apoptotic cells at 0.005 uM after 24 hrs by Annexin-V and 7-AAD staining based flow cytometric analysis (reference value: 7.63%); assay type: functional
HCT-116 [5] = experiment: Induction of apoptosis in human HCT116 cells assessed as early apoptotic cells at 0.005 uM after 24 hrs by Annexin-V and 7-AAD staining based flow cytometric analysis (reference value: 8.11%); assay type: functional
HCT-116 [6] = experiment: Induction of cell cycle arrest in human HCT116 cells assessed as accumulation at G2/M phase at 0.005 uM after 24 hrs by 7-AAD staining-based flow cytometric analysis (reference value: 12.26%); assay type: functional
MCF7 [7] = experiment: Induction of apoptosis in human MCF7 cells assessed as viable cells at 0.01 uM after 24 hrs by Annexin-V and 7-AAD staining based flow cytometric analysis (reference value: 90.2%); assay type: functional; settings: MCF7, 24 h, read-out: Activity
MCF7 [8] = experiment: Induction of apoptosis in human MCF7 cells assessed as late apoptotic cells at 0.01 uM after 24 hrs by Annexin-V and 7-AAD staining based flow cytometric analysis (reference value: 7.63%); assay type: functional
HCT-116 [9] = experiment: Induction of cell cycle arrest in human HCT116 cells assessed as accumulation at S phase at 0.05 uM after 24 hrs by 7-AAD staining-based flow cytometric analysis (reference value: 37.20%); assay type: functional
HCT-116 [10] = experiment: Induction of apoptosis in human HCT116 cells assessed as necrotic cells at 0.005 uM after 24 hrs by Annexin-V and 7-AAD staining based flow cytometric analysis (reference value: 0.68%); assay type: functional
MCF7 [11] = experiment: Induction of apoptosis in human MCF7 cells assessed as viable cells at 0.005 uM after 24 hrs by Annexin-V and 7-AAD staining based flow cytometric analysis (reference value: 90.2%); assay type: functional; settings: MCF7, 24 h, read-out: Activity
MCF7 [12] = experiment: Induction of apoptosis in human MCF7 cells assessed as necrotic cells at 0.05 uM after 24 hrs by Annexin-V and 7-AAD staining based flow cytometric analysis (reference value: 0.16%); assay type: functional
MCF7 [13] = experiment: Induction of cell cycle arrest in human MCF7 cells assessed as accumulation at G0/G1 phase at 0.005 uM after 24 hrs by 7-AAD staining-based flow cytometric analysis (reference value: 62.45%); assay type: functional
HCT-116 [14] = experiment: Induction of cell cycle arrest in human HCT116 cells assessed as accumulation at S phase at 0.1 uM after 24 hrs by 7-AAD staining-based flow cytometric analysis (reference value: 37.20%); assay type: functional
HCT-116 [15] = experiment: Induction of apoptosis in human HCT116 cells assessed as early apoptotic cells at 0.05 uM after 24 hrs by Annexin-V and 7-AAD staining based flow cytometric analysis (reference value: 8.11%); assay type: functional
MCF7 [16] = experiment: Induction of cell cycle arrest in human MCF7 cells assessed as accumulation at S phase at 0.05 uM after 24 hrs by 7-AAD staining-based flow cytometric analysis (reference value: 26.07%); assay type: functional
MCF7 [17] = experiment: Induction of apoptosis in human MCF7 cells assessed as necrotic cells at 0.01 uM after 24 hrs by Annexin-V and 7-AAD staining based flow cytometric analysis (reference value: 0.16%); assay type: functional
HCT-116 [18] = experiment: Antiproliferative activity against human HCT116 cells overexpressing FAK assessed as reduction in cell viability after 72 hrs by MTS assay; settings: HCT-116, 72 h
U-87 MG = experiment: Antiproliferative activity against human U87MG cells overexpressing FAK assessed as reduction in cell viability after 72 hrs by MTS assay
HCT-116 [19] = experiment: Induction of cell cycle arrest in human HCT116 cells assessed as increase in accumulation at G2/M phase after 24 hrs by 7-AAD staining-based flow cytometric analysis; assay type: functional
HCT-116 [20] = experiment: Induction of cell cycle arrest in human HCT116 cells assessed as accumulation at G2/M phase at 0.1 uM after 24 hrs by 7-AAD staining-based flow cytometric analysis (reference value: 12.26%); assay type: functional
MCF7 [21] = experiment: Antiproliferative activity against human MCF7 cells overexpressing FAK assessed as reduction in cell viability after 72 hrs by MTS assay; settings: MCF7, 72 h
MCF7 [22] = experiment: Induction of apoptosis in human MCF7 cells assessed as early apoptotic cells at 0.01 uM after 24 hrs by Annexin-V and 7-AAD staining based flow cytometric analysis (reference value: 2.04%); assay type: functional
MCF7 [23] = experiment: Induction of cell cycle arrest in human MCF7 cells assessed as accumulation at G0/G1 phase at 0.05 uM after 24 hrs by 7-AAD staining-based flow cytometric analysis (reference value: 62.45%); assay type: functional
HCT-116 [24] = experiment: Induction of cell cycle arrest in human HCT116 cells assessed as accumulation at G0/G1 phase at 0.05 uM after 24 hrs by 7-AAD staining-based flow cytometric analysis (reference value: 50.53%); assay type: functional
MCF7 [25] = experiment: Induction of cell cycle arrest in human MCF7 cells assessed as increase in accumulation at G2/M phase after 24 hrs by 7-AAD staining-based flow cytometric analysis; assay type: functional
MCF7 [26] = experiment: Induction of apoptosis in human MCF7 cells assessed as early apoptotic cells at 0.005 uM after 24 hrs by Annexin-V and 7-AAD staining based flow cytometric analysis (reference value: 2.04%); assay type: functional
HCT-116 [27] = experiment: Induction of apoptosis in human HCT116 cells assessed as late apoptotic cells at 0.05 uM after 24 hrs by Annexin-V and 7-AAD staining based flow cytometric analysis (reference value: 2.63%); assay type: functional
MCF7 [28] = experiment: Induction of cell cycle arrest in human MCF7 cells assessed as accumulation at S phase at 0.005 uM after 24 hrs by 7-AAD staining-based flow cytometric analysis (reference value: 26.07%); assay type: functional
HCT-116 [29] = experiment: Induction of apoptosis in human HCT116 cells assessed as viable cells at 0.005 uM after 24 hrs by Annexin-V and 7-AAD staining based flow cytometric analysis (reference value: 88.6%); assay type: functional; settings: HCT-116, 24 h, read-out: Activity
MCF7 [30] = experiment: Induction of cell cycle arrest in human MCF7 cells assessed as accumulation at G2/M phase at 0.005 uM after 24 hrs by 7-AAD staining-based flow cytometric analysis (reference value: 11.48%); assay type: functional
PC-3 = experiment: Antiproliferative activity against human PC3 cells overexpressing FAK assessed as reduction in cell viability after 72 hrs by MTS assay; settings: PC-3, 72 h
HCT-116 [31] = experiment: Induction of apoptosis in human HCT116 cells assessed as early apoptotic cells at 0.1 uM after 24 hrs by Annexin-V and 7-AAD staining based flow cytometric analysis ((reference value: 8.11%); assay type: functional

Question: For CNC(=O)c1ccccc1Nc1nc(Nc2ccc(C(=O)N3CCN(C(=S)SCCN(C)C)CC3)cc2)ncc1C(F)(F)F, which Activity (HCT-116 [1]) is on record?
Answer: Its Activity is 1.42%.

Question: What about the Activity (HCT-116 [2]) of the same compound?
Answer: The Activity was 39.76%.

Question: What about the Activity (MCF7 [3]) of the same compound?
Answer: Its Activity is 13.7%.

Question: What about the Activity (MCF7 [4]) of the same compound?
Answer: Its Activity is 16.5%.

Question: What about the Activity (HCT-116 [5]) of the same compound?
Answer: The Activity was 15.9%.

Question: And the Activity (HCT-116 [6])?
Answer: Its Activity is 18.38%.

Question: What about the viability at 0.01 µM (MCF7 [7]) of the same compound?
Answer: The viability at 0.01 µM was 71.2%.

Question: And the Activity (MCF7 [8])?
Answer: Its Activity is 21.4%.

Question: And the Activity (HCT-116 [9])?
Answer: Its Activity is 9.05%.

Question: What about the Activity (HCT-116 [10]) of the same compound?
Answer: Its Activity is 0.2%.

Question: What about the viability at 0.005 µM (MCF7 [11]) of the same compound?
Answer: The viability at 0.005 µM was 74.2%.

Question: What about the Activity (MCF7 [12]) of the same compound?
Answer: Its Activity is 0.56%.

Question: And the Activity (MCF7 [13])?
Answer: Its Activity is 41.93%.

Question: And the Activity (HCT-116 [14])?
Answer: Its Activity is 4.4%.

Question: And the Activity (HCT-116 [15])?
Answer: The Activity was 18.7%.

Question: What about the Activity (MCF7 [16]) of the same compound?
Answer: Its Activity is 7.2%.

Question: And the Activity (MCF7 [17])?
Answer: The Activity was 0.47%.

Question: And the IC50 (HCT-116 [18])?
Answer: Its IC50 is 1 nM.

Question: And the IC50 (U-87 MG)?
Answer: The IC50 was 60 nM.

Question: And the Activity (HCT-116 [19])?
Answer: Its Activity is “Dose-dependent effect”.

Question: And the Activity (HCT-116 [20])?
Answer: Its Activity is 90.46%.

Question: And the IC50 (MCF7 [21])?
Answer: Its IC50 is 20 nM.

Question: And the Activity (MCF7 [22])?
Answer: Its Activity is 6.95%.

Question: And the Activity (MCF7 [23])?
Answer: The Activity was 6.72%.

Question: And the Activity (HCT-116 [24])?
Answer: The Activity was 3.4%.

Question: What about the Activity (MCF7 [25]) of the same compound?
Answer: Its Activity is “Dose-dependent effect”.

Question: What about the Activity (MCF7 [26]) of the same compound?
Answer: Its Activity is 9.11%.

Question: What about the Activity (HCT-116 [27]) of the same compound?
Answer: Its Activity is 1.68%.

Question: And the Activity (MCF7 [28])?
Answer: Its Activity is 21.4%.

Question: And the viability at 0.005 µM (HCT-116 [29])?
Answer: The viability at 0.005 µM was 82.4%.

Question: What about the Activity (MCF7 [30]) of the same compound?
Answer: The Activity was 36.67%.

Question: And the IC50 (PC-3)?
Answer: Its IC50 is 30 nM.

Question: And the Activity (HCT-116 [31])?
Answer: Its Activity is 21.5%.
